Publication PMC3961306, “Comparison of the Cancer Gene Targeting and Biochemical Selectivities of All Targeted Kinase Inhibitors Approved for Clinical Use” (PLoS ONE, 2014)

Columns and labels:
[1] = system: mutant versus wild-type cell lines of the 44 cell line panel; experiment: Anova analysis of cell panel IC50s against cancer gene changes; standardized mean difference (targetedness); settings: BRAF oncogene targeting, Figure 5D
[2] = target: panel of more than 300 wild-type and mutant kinases (313 kinase panel) (Homo sapiens, UniProt O75914); experiment: Kinase profiling in a biochemical assay panel (mobility shift assays and ELISA), %-inhibition at 1 μM; selectivity entropy; settings: kinase PAK3; 1 μM
Sequence of panel of more than 300 wild-type and mutant kinases (313 kinase panel) (Homo sapiens, UniProt O75914) (O75914 whole entry, change not shown): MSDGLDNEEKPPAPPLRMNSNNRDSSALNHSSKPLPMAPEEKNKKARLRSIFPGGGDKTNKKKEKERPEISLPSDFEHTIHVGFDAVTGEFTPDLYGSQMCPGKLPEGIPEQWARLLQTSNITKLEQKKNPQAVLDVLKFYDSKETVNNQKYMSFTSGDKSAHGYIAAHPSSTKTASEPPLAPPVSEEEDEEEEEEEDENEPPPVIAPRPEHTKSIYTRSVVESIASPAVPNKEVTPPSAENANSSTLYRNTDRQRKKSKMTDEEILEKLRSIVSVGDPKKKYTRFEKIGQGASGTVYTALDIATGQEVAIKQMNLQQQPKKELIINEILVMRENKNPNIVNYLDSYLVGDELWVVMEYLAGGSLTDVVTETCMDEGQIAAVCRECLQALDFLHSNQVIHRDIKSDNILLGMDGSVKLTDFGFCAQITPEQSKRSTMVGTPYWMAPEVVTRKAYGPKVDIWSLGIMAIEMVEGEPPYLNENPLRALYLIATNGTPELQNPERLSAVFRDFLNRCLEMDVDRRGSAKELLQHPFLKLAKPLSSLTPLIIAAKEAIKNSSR

[3] = target: T1, panel of more than 300 wild-type and mutant kinases (313 kinase panel) (Homo sapiens, UniProt P42679); experiment: as above
T1 sequence (P42679 1-507): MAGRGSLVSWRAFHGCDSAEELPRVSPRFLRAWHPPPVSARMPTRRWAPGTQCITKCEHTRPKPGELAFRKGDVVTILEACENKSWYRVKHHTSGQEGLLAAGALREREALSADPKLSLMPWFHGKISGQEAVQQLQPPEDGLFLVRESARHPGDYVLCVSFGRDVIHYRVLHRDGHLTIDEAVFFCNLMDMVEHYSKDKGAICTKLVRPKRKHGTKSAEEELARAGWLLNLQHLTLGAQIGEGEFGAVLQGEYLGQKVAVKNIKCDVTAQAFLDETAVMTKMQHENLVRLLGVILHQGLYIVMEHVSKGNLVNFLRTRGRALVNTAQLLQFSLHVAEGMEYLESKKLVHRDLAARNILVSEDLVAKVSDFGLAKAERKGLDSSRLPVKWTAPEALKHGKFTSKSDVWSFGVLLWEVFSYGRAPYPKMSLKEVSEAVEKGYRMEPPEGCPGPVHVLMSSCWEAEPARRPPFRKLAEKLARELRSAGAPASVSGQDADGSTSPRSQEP

[4] = target: T2, panel of more than 300 wild-type and mutant kinases (313 kinase panel) (Homo sapiens, UniProt O00444); experiment: as above
T2 sequence (O00444 1-970): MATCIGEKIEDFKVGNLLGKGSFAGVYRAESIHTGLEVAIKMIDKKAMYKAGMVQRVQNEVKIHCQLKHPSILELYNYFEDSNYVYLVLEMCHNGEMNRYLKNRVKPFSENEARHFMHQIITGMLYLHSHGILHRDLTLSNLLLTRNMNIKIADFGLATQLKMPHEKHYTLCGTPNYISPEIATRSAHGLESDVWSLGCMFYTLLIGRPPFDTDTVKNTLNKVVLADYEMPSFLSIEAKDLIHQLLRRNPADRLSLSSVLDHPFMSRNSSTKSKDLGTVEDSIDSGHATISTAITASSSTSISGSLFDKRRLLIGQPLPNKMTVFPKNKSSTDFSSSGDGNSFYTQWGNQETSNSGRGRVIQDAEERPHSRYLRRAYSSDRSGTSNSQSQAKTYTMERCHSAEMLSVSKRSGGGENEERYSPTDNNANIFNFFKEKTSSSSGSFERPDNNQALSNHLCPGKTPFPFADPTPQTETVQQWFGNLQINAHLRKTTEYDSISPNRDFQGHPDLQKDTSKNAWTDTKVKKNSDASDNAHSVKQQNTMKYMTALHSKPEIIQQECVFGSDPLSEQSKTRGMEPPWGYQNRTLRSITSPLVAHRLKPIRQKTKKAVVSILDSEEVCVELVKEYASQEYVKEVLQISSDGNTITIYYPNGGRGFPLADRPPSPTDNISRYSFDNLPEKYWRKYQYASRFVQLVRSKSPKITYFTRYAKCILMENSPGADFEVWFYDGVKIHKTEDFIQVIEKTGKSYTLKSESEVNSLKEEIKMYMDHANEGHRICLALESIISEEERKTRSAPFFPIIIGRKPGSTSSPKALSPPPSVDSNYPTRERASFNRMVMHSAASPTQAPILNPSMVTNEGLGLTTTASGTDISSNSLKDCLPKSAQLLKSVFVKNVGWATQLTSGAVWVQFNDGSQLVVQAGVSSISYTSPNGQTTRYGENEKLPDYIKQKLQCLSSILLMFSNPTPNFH

FKBP12 = settings: value indicates binding interaction with FKBP12; read-out: IC50 (nM) on relevant targets: mTOR; cited from earlier work
[5] = target: panel of more than 300 wild-type and mutant kinases (313 kinase panel) (Homo sapiens, UniProt P00519, T315I); experiment: Kinase profiling in a biochemical assay panel (mobility shift assays and ELISA), %-inhibition at 1 μM; selectivity entropy
[6] = kinase ABL(T315I), 1 μM compound

Structure (SMILES): CC(C)(C)c1nc(-c2cccc(NS(=O)(=O)c3c(F)cccc3F)c2F)c(-c2ccnc(N)n2)s1 [dabrafenib]
- targetedness (standardized logIC50 difference) [1]: -4.96

Structure (SMILES): Cc1nc(Nc2ncc(C(=O)Nc3c(C)cccc3Cl)s2)cc(N2CCN(CCO)CC2)n1 [dasatinib]
- %-inhibition of PAK3 [2]: -1.28%

Structure (SMILES): C#Cc1cccc(Nc2ncnc3cc(OCCOC)c(OCCOC)cc23)c1 [erlotinib]
- %-inhibition of CTK ([3]; 1 µM): 22%
- %-inhibition of PLK4 ([4]; 1 µM): 9%

Structure (SMILES): CO[C@H]1C[C@@H]2CC[C@@H](C)[C@@](O)(O2)C(=O)C(=O)N2CCCC[C@H]2C(=O)O[C@H]([C@H](C)C[C@@H]2CC[C@@H](OCCO)[C@H](OC)C2)CC(=O)[C@H](C)/C=C(\C)[C@@H](O)[C@@H](OC)C(=O)[C@H](C)C[C@H](C)/C=C/C=C/C=C/1C [everolimus]
- IC50 (FKBP12): ~2 nM

Structure (SMILES): O=S(=O)(c1cccc2cnccc12)N1CCCNCC1 [fasudil]
- %-inhibition, ABL(T315I) [5, 6]: 1.7%

Structure (SMILES): CS(=O)(=O)CCNCc1ccc(-c2ccc3ncnc(Nc4ccc(OCc5cccc(F)c5)c(Cl)c4)c3c2)o1 [lapatinib]
- %-inhibition of CTK ([3]; kinase CTK, compound at 1 μM): -0.699%
- %-inhibition, ABL(T315I) [5, 6]: 9%
- %-inhibition of PLK4 ([4]; 1 µM): -4.47%
- %-inhibition of PAK3 [2]: 4.27%

Structure (SMILES): Cc1cn(-c2cc(NC(=O)c3ccc(C)c(Nc4nccc(-c5cccnc5)n4)c3)cc(C(F)(F)F)c2)cn1 [nilotinib]
- %-inhibition of CTK ([3]; 1 µM): 7%
- %-inhibition of PLK4 ([4]; kinase PLK4, 1 μM): 21%
- %-inhibition of PAK3 [2]: -4%

Structure (SMILES): Cc1ccc(Nc2nccc(N(C)c3ccc4c(C)n(C)nc4c3)n2)cc1S(N)(=O)=O [pazopanib]
- %-inhibition of CTK ([3]; kinase CTK, compound at 1 μM): 4.69%
- %-inhibition of PLK4 ([4]; kinase PLK4, 1 μM): 72%
- %-inhibition of PAK3 [2]: 6%

Structure (SMILES): CNC(=O)c1cc(Oc2ccc(NC(=O)Nc3ccc(Cl)c(C(F)(F)F)c3)c(F)c2)ccn1 [regorafenib]
- %-inhibition, ABL(T315I) [5, 6]: 66%

Structure (SMILES): N#CC[C@H](C1CCCC1)n1cc(-c2ncnc3[nH]ccc23)cn1 [ruxolitinib]
- %-inhibition, ABL(T315I) ([5]; 1 µM): 4%

Structure (SMILES): CCN(CC)CCNC(=O)c1c(C)[nH]c(/C=C2\C(=O)Nc3ccc(F)cc32)c1C [sunitinib]
- %-inhibition of CTK ([3]; kinase CTK, compound at 1 μM): 28%
- %-inhibition of PLK4 ([4]; kinase PLK4, 1 μM): 58%

Structure (SMILES): CO[C@H]1C[C@@H]2CC[C@@H](C)[C@@](O)(O2)C(=O)C(=O)N2CCCC[C@H]2C(=O)O[C@H]([C@H](C)C[C@@H]2CC[C@@H](OC(=O)C(C)(CO)CO)[C@H](OC)C2)CC(=O)[C@H](C)/C=C(\C)[C@@H](O)[C@@H](OC)C(=O)[C@H](C)C[C@H](C)/C=C/C=C/C=C/1C [temsirolimus]
- IC50 (FKBP12): ~2 nM

Structure (SMILES): CCCS(=O)(=O)Nc1ccc(F)c(C(=O)c2c[nH]c3ncc(-c4ccc(Cl)cc4)cc23)c1F [vemurafenib]
- %-inhibition, ABL(T315I) [5, 6]: 7%
